Laboratory results published in paper PMC10136361 (Biomolecules, 2023).

How the values were obtained:
[1] = target: T1, MmGSTP1-1 (Mus musculus, UniProt P19157); test: steady-state kinetics (Km); format: biochemical
T1 construct: gene Gstp1; recombinant MmGSTP1-1 (GenBank BC061109.1), expressed in E. coli

[2] = target: T1, MmGSTP1-1; test: X-ray co-crystal structure, […] Å; format: binding
[3] = target: T1, MmGSTP1-1; test: CDNB-GSH enzyme assay, single concentration […]; format: biochemical; settings: read-out: % inhibition at 25 μM
[4] = target: T1, MmGSTP1-1; test: CDNB-GSH enzyme assay at […] nm, inhibition kinetics (KiE, GSH varied); IC50 […]; format: biochemical

T1 sequence (P19157 2-210): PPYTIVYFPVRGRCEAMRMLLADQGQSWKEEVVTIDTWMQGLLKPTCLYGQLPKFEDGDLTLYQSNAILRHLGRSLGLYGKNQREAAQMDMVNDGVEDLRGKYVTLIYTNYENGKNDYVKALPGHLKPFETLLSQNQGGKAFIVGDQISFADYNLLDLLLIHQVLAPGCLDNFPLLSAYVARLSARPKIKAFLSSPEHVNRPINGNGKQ

**Q.** Which Km [1] does the source give for `O=[N+]([O-])c1ccc(Cl)c([N+](=O)[O-])c1` [1-chloro-2,4-dinitrobenzene] here?
**A.** 800 ± 40 µM

**Q.** For `N[C@@H](CCC(=O)N[C@@H](CSCc1ccc([N+](=O)[O-])cc1)C(=O)NCC(=O)O)C(=O)O` [S-(p-nitrobenzyl)glutathione], which “X-ray co-crystal structure, 1.28 Å” value [2] is on record?
**A.** A molecule of Nb-GSH was found bound in the active site of each molecule of the dimer

**Q.** `CC1(C)[C@H](C(=O)O[C@H](C#N)c2cccc(Oc3ccccc3)c2)[C@@H]1C=C(Br)Br` [deltamethrin] was tested. Which inhibition at 25 µM [3] did it give?
**A.** 82%

**Q.** For `CSC1=N[C@@](C)(c2ccccc2)C(=O)N1Nc1ccccc1` [fenamidone], which inhibition at 25 µM [3] is on record?
**A.** 53%

**Q.** With `CC(C)NC(=O)N1CC(=O)N(c2cc(Cl)cc(Cl)c2)C1=O` [iprodione, 3-(3,5-dichlorophenyl)-2,4-dioxo-N-propan-2-ylimidazolidine-1-carboxamide] as the molecule, how does the Ki [4] read?
**A.** 5.2 ± 0.1 µM

**Q.** `Cc1cc(C)c(C2=C(OC(=O)CC(C)(C)C)C3(CCCC3)OC2=O)c(C)c1` [spiromesifen] was tested. Which inhibition at 25 µM [3] did it give?
**A.** 70%

**Q.** Which inhibition at 25 µM [3] does the source give for `O=S1OC[C@@H]2[C@H](CO1)[C@@]1(Cl)C(Cl)=C(Cl)[C@]2(Cl)C1(Cl)Cl` (stereo partly drawn) [α-endosulfan] here?
**A.** 58%
